Results from paper PMC10009108, “Design, synthesis and screening of indole acetic acid-based tri-azo moieties as antioxidants, anti-microbial and cytotoxic agents” (Frontiers in Pharmacology, 2023).
Converted amounts (≈) assume the structure as drawn.

Tests used:
resistant S. aureus = assay: Antibacterial assay, resistant strains; assay type: cell-based, Staphylococcus aureus; set-up: key to Antibacterial activity, resistant S. aureus: Activity: Positive = have anti-bacterial activity; --- = no anti-bacterial activity; details: 25 μg/mL; resistant strain
Source text: (§1) The micro broth dilution method was used to establish the antibacterial potential of test samples against Staphylococcus aureus (ATCC-6538), Bacillus subtilis (ATCC-6633), Escherichia coli (ATCC-25922), Klebsiella pneumoniae (ATCC-1705), and Pseudomonas aeruginosa (ATCC-15442) and for the resistant strains of MRSA Staphylococcus aureus, P. aeruginosa and Escherichia coli. The procedure used is described by ([Sarker et al., 2007]). Bacterial inoculum was formed under aseptic conditions keeping the density near 5 × 10^4 CFU/mL in pre-autoclaved nutrient broth. Test samples of an aliquot of 5 µL were shifted to labeled wells of 96 well plates, and after that addition of 195 µL of nutrient broth; was accomplished. After that, a 2-fold serial dilution of every sample was arranged to get final concentrations of 12.5 μg/mL. Then, with the help of a micropipette, 195 µL of bacterial culture of respective strains was poured into each well; further advancement was incubating of plates for 30 min at the temperature of 37°C. […] Incubation of plates was again carried out at 37°C for 1 day, absorbance was noted, and net change in turbidity was the difference between two values of absorbance.
(§2) Schiff base tri-azo compounds were investigated for antibacterial potential. […] 6.25 μg/mL for 5b and 5g, and the least, Table 4 3.12 μg/mL was for 5f. […] Substituents with electron-withdrawing attributes, e.g., -NO2, -Cl, -OH on the aromatic ring, assert a great impact on the antibacterial activity of synthetic compounds. It is also observed that an increase in the number of -OH groups tend to enhance the activity ([Hosamani and Shingalapur, 2011]). Due to the difference in cell-wall composition of Gram + ve and -ve bacteria, different compounds show different features towards the same micro-organism ([Goszczyn’ska et al., 2015]).

MRSA [1] = assay: Antibacterial assay, resistant strains; assay type: cell-based; details: Staphylococcus aureus, resistant strain
Source text: as §1, §2

[2] = test system: Mucor species (FCBP-0300); assay: Antifungal disc diffusion assay; assay type: cell-based; set-up: key to Zone of inhibition, Mucor: --- = no anti-fungal activity; details: 20 μg/disc
Experimental: (§3) The antifungal response to these chemical moieties was evaluated through a procedure designated by ([Zahra et al., 2017]). Amphotericin B (4 mg/mL DMSO) is used as + ve control and DMSO as-ve one (5 μL/disc). Sterile SDA-coated plates were used, on which 100 µL of suspension of spores for each strain (previously reaped-in-Tween-20 solution) was spread. Discs of sterile filter paper containing 5 µL of sample solution (4 mg/mL DMSO) were kept on plates and incubated for 2 days at 28°C. Zones of inhibition were recorded.
(§4) The Synthetic compound library was subjected to an antifungal assay using five different strains of Fungai, i.e., Fusarium solani (FCBP-0291), Aspergillus fumigatus (FCBP-66), Aspergillus flavus (FCBP-0064), Aspergillus niger (FCBP-0198) and Mucor species (FCBP-0300). Amphotericin B was the standard drug used. […] The outcomes are concise in Table 5.

[3] = test system: Aspergillus niger (FCBP-0198); assay: Antifungal disc diffusion assay; assay type: cell-based; set-up: key to Zone of inhibition, A. niger: --- = no anti-fungal activity; details: 20 μg/disc
Experimental: as §3, §4

[4] = test system: Aspergillus flavus (FCBP-0064); assay: Antifungal disc diffusion assay; assay type: cell-based; set-up: key to Zone of inhibition, A. flavus: --- = no anti-fungal activity; details: 20 μg/disc
Experimental: as §3, §4

[5] = test system: Aspergillus fumigatus (FCBP-66); assay: Antifungal disc diffusion assay; assay type: cell-based; set-up: key to Zone of inhibition, A. fumigatus: --- = no anti-fungal activity; details: 20 μg/disc
Experimental: as §3, §4

[6] = test system: Fusarium solani (FCBP-0291); assay: Antifungal disc diffusion assay; assay type: cell-based; set-up: key to Zone of inhibition, F. solani: --- = no anti-fungal activity
Experimental: as §3, §4

[7] = test system: Streptomyces 85 E strains; assay: Protein kinase inhibition assay; assay type: cell-based; set-up: key: Active = Bacterial activity; --- = no activity; details: Sample Concentration = 20 μg/mL; Surfactin B 20 μg/mL
Experimental: The protocol followed for this is mentioned ([Fatima et al., 2015]). To assess the test compound’s inhibitory potential, Streptomyces 85 E strains were used, which were refreshed in tryptone soya broth at 37 for 1 day. Spores from refreshed cultures were utilized to prepare the bacterial culture. 100 μg compound was loaded on 5 mm discs of filter paper. These were kept on sowed plates. DMSO-permeated discs were the -ve control. The incubation period was 7 days, and outcomes were stated as bald and clear zones of inhibition.
These synthetic products were evaluated to estimate the inhibitory potential for protein kinase of […] 85 E. Protein kinase is involved with the mycelium production of this species, so the growth patterns were observed as the bald zone. […] One of the propitious targets in cancer treatment is the inhibition of protein kinases. Protein phosphorylation by protein kinases at various residues regulates diverse biological processes, which may include apoptosis, proliferation and differentiation of cells. Deregulation at any step in early tumorigenesis may lead to cancer ([Yao et al., 2011]). Aerial hyphae formation in Streptomyces depends upon protein kinase activity; this scenario is exploited in this test; to inquire about these compounds’ kinase inhibition potential and to look at their anti-cancer potential. The advantage of using Streptomyces for kinase inhibition assay is its predisposition to a wide range of eukaryotic cells. Whole-cell assay of Streptomyces not only identifies the compound’s cytotoxic potential but also identifies signal transduction inhibitors for various activities, e.g., antitumor, anti-mycobacterial, and anti-infective ([Waters et al., 2002]). […] Activity with a bald zone of 10.5 mm and a clear zone of 7.5 mm, following is 5a with a bald zone of 9 mm and a clear zone of 6 mm, and for 5g, values are 7.5 and 6 mm, respectively. It means that these compounds have the potential for protein kinase inhibition as well as the toxicity of the compound.

[8] = test system: Staphylococcus aureus (ATCC-6538); assay: Antibacterial assay, micro broth dilution; assay type: cell-based; set-up: key: Active = Bacterial activity; --- = no activity; details: 25 μg/mL
[9] = test system: Pseudomonas aeruginosa (ATCC-15442); assay: Antibacterial assay, micro broth dilution; assay type: cell-based; set-up: key: Active = Bacterial activity; --- = no activity; details: 25 μg/mL
[10] = test system: Klebsiella pneumoniae (ATCC-1705); assay: Antibacterial assay, micro broth dilution; assay type: cell-based; set-up: key: Active = Bacterial activity; --- = no activity; details: 25 μg/mL
[11] = test system: Escherichia coli (ATCC-25922); assay: Antibacterial assay, micro broth dilution; assay type: cell-based; set-up: key: Active = Bacterial activity; --- = no activity; details: 25 μg/mL
MRSA [12] = assay: Antibacterial assay, resistant strains; assay type: cell-based, Staphylococcus aureus; details: 25 μg/mL; resistant strain
[13] = test system: Streptomyces 85 E strains; assay: Protein kinase inhibition assay; assay type: cell-based; set-up: key to Bald zone: Active = Bacterial activity; --- = no activity; details: Sample Concentration = 20 μg/mL; Surfactin B 20 μg/mL

Structure (SMILES) | MIC (MRSA [1]) [µg/mL] | Antibacterial activity, resistant S. aureus: Activity (resistant S. aureus) | Zone of inhibition, Mucor [2] | Zone of inhibition, A. niger [3] | Zone of inhibition, A. flavus [4] | Zone of inhibition, A. fumigatus [5] | Zone of inhibition, F. solani ([6]; 20 μg/disc) | Clear zone [7] | Antibacterial activity, S. aureus: Activity [8] | Antibacterial activity, Pseudomonas aeruginosa: Activity [9] | Antibacterial activity, Klebsiella pneumoniae: Activity [10] | Antibacterial activity, E. coli: Activity [11] | Antibacterial activity, MRSA: Activity (MRSA [12]) | Bald zone [13] | antifungal activity against Fusarium solani (in words) [6] | zone of inhibition at 20 µg/disc ([6]; Fusarium solani, 20 μg/disc, read-out: Zone of inhibition, F. solani) [mm] | Clear zone [13] [mm]
S=c1[nH]nc(Cc2c[nH]c3ccccc23)n1N=Cc1cccc(Cl)c1 [Compound 5f] | 12.5 (≈ 34 µM) | --- | --- | --- | --- | --- | --- | --- | Active | --- | Active | --- | Active | --- |  |  | 
COc1cccc(C=Nn2c(Cc3c[nH]c4ccccc34)n[nH]c2=S)c1 [Compound 5b] | 12.5 (≈ 34.4 µM) | --- | --- | --- | --- | --- | --- | 7.5 mm | --- | Active | Active | --- | Active | 10.5 mm |  |  | 
O=[N+]([O-])c1ccc(C=Nn2c(Cc3c[nH]c4ccccc34)n[nH]c2=S)cc1 [Compound 5d] | 12.5 (≈ 33 µM) | --- | --- | --- | --- | --- | --- | --- | --- | --- | Active | Active | Active | --- |  |  | 
Oc1cccc(C=Nn2c(Cc3c[nH]c4ccccc34)n[nH]c2=S)c1 [Compound 5a] | 12.5 (≈ 35.8 µM) |  | --- | --- | --- | --- | --- | 6 mm |  | Active | Active |  | Active | 9 mm |  |  | 
COc1cc(C=Nn2c(Cc3c[nH]c4ccccc34)n[nH]c2=S)cc(OC)c1OC [Compound 5g] | 12.5 (≈ 29.5 µM) | --- | --- | --- | --- | --- | --- |  | Active | --- | Active | --- | Active | 7.5 mm |  |  | 6

More lines, main results first:

MIC (MRSA [1]) [µg/mL] | Structure (SMILES) | Antibacterial activity, resistant S. aureus: Activity (resistant S. aureus) | Zone of inhibition, Mucor [2] | Zone of inhibition, A. niger [3] | Zone of inhibition, A. flavus [4] | Zone of inhibition, A. fumigatus [5] | Zone of inhibition, F. solani ([6]; 20 μg/disc) | Clear zone [7] | Antibacterial activity, S. aureus: Activity [8] | Antibacterial activity, Pseudomonas aeruginosa: Activity [9] | Antibacterial activity, Klebsiella pneumoniae: Activity [10] | Antibacterial activity, E. coli: Activity [11] | Antibacterial activity, MRSA: Activity (MRSA [12]) | Bald zone [13] | antifungal activity against Fusarium solani (in words) [6] | zone of inhibition at 20 µg/disc ([6]; Fusarium solani, 20 μg/disc, read-out: Zone of inhibition, F. solani) [mm] | Clear zone [13] [mm]
12.5 (≈ 34 µM) | S=c1[nH]nc(Cc2c[nH]c3ccccc23)n1N=Cc1ccc(Cl)cc1 [Compound 5c] | --- | --- | --- | --- | --- | --- | --- | --- | --- | Active | Active | Active | --- |  |  | 
12.5 (≈ 35.8 µM) | Oc1ccc(C=Nn2c(Cc3c[nH]c4ccccc34)n[nH]c2=S)cc1 [Compound 5e] | --- | --- | --- | --- | --- | 6 mm | --- | --- | Active | Active | Active | Active | --- | active | > 6 | 
